Converted amounts (≈) assume the structure as drawn.
Key:
ATH-8 cell line [1] = experiment: Selectivity index expressed as ratio of compound concentration required to reduce the growth of normal uninfected ATH8 cells by 50% to the compound concentration (MIC); format: functional, Homo sapiens
ATH-8 cell line [2] = experiment: Minimum inhibitory concentration of the compound, achieving a complete protection of ATH8 cells against the cytopathic effect of HTLV-III / LAV […]; format: functional; conditions: Homo sapiens

With O=C(O)P(=O)(O)O [FOSCARNET] the SI (ATH-8 cell line [1]) was over 1 and the MIC (ATH-8 cell line [2]) was 350 µM (≈ 44.1 µg/mL).

Molecule Nc1ccn([C@H]2CC[C@@H](CO)O2)c(=O)n1 [ZALCITABINE] has an SI (ATH-8 cell line [1]) of 50 and an MIC (ATH-8 cell line [2]) of 0.5 µM (≈ 0.106 µg/mL).

With Cc1cn([C@H]2C[C@H](N=[N+]=[N-])[C@@H](CO)O2)c(=O)[nH]c1=O [ZIDOVUDINE] the SI (ATH-8 cell line [1]) was over 50 and the MIC (ATH-8 cell line [2]) was 1 µM (≈ 0.267 µg/mL).

O=C(O)C1=CC(=C(c2ccc(O)c(C(=O)O)c2)c2ccc(O)c(C(=O)O)c2)C=CC1=O [AURINTRICARBOXYLIC ACID] showed an SI (ATH-8 cell line [1]) of over 2.5 and an MIC (ATH-8 cell line [2]) of 47 µM (≈ 19.9 µg/mL).

Cc1cc(-c2ccc(/N=N/c3ccc4c(S(=O)(=O)[O-])cc(S(=O)(=O)[O-])c(N)c4c3O)c(C)c2)ccc1/N=N/c1ccc2c(S(=O)(=O)[O-])cc(S(=O)(=O)[O-])c(N)c2c1O.[Na+].[Na+].[Na+].[Na+] [EVANS BLUE] gave an SI (ATH-8 cell line [1]) of over 4 and an MIC (ATH-8 cell line [2]) of 26 µM.

Molecule NC(=O)c1ncn([C@@H]2O[C@H](CO)[C@@H](O)[C@H]2O)n1 [RIBAVIRIN] has an SI (ATH-8 cell line [1]) of under 0.3 and an MIC (ATH-8 cell line [2]) of over 400 µM.

Cc1ccc(C(=O)Nc2ccc(S(=O)(=O)O)c3cc(S(=O)(=O)O)cc(S(=O)(=O)O)c23)cc1NC(=O)c1cccc(NC(=O)Nc2cccc(C(=O)Nc3cc(C(=O)Nc4ccc(S(=O)(=O)O)c5cc(S(=O)(=O)O)cc(S(=O)(=O)O)c45)ccc3C)c2)c1 [SURAMIN] gave an SI (ATH-8 cell line [1]) of 5 and an MIC (ATH-8 cell line [2]) of 35 µM (≈ 45.4 µg/mL).
